# Reference: patent publication US20130178453A1, “Cannabinoid Agonists” (priority 2010, published 2013)
# Experiments:
# [1] = molecular target: T1, hCB2 (Homo sapiens, UniProt P34972); assay: hCB2 cAMP agonist assay (HEK-293 cells); format: cell-based
# Method in brief: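 HEK-293 cells stably expressing hCB2, treated 30 min at 37° C with compound in HBSS/10 mM HEPES/0.1% BSA alongside forskolin (90 uM in the 3× solution, not final).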
# [2] = molecular target: T1, hCB2; assay: hCB2 radioligand binding assay ([3H]-CP 55,940 displacement); settings: hCB2 IC50 (CP displ, nM, HEK), HEK membranes
# Method in brief: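 Membranes from cells transfected with human CB2 cDNA (pcDNA3.1+), kept in 20 mM HEPES pH 7.4, MgCl2, EDTA, sucrose with protease inhibitors.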
# [3] = molecular target: T2, hCB1 (Homo sapiens, UniProt P21554); assay: hCB1 GTPγS agonist assay (HEK-293 membranes); format: biochemical
# From the text: cDNA expression clones for human CB 1 (hCB1, Genbank Accession No. AY225225) and human CB2 (hCB2, Genbank Accession No. AY242132) expressed in vector pcDNA3.1+ were purchased from UMR cDNA Resource Center, Rolla, Mo. (Clone ID CNR01L000 for hCB1; CNR0200000 for hCB2).
# Stable, HEK-293-derived cell lines that recombinantly express hCB1 or hCB2 were established. In brief, the clone hCB1 (CNR1L) or hCB2 (CNR2) was transfected into human embryonic kidney cells (HEK-293) using Lipofectamine 2000 (Gibco, Cat#11668-019) according to the manufacturer's protocol. Transfected clones were isolated by single colony purification and clones were screened for receptor expression using a whole cell, ^3H—CP 55,940 radioligand binding assay. HEK-293 stable cells were maintained in Dulbecco's modified Eagles medium (DMEM) containing 10% fetal bovine serum, 2 mM L-glutamine and 0.5 mg/mL G-418.
# Membranes were isolated from transfected cells as follows. Monolayers of cultured cells were washed twice with phosphate-buffered saline (PBS). Cells were scraped into 20 mM HEPES, pH 7.4, 10 mM EDTA containing complete cocktail protease inhibitors (Roche, Catalog #11 697 498 001), and were homogenized by an electric-powered mechanical probe homogenizer (Omni GLH; probe G7-195S) for 40 seconds at 7000 rpm. Homogenates were centrifuged 10 minutes at 1000×g at 4° C. The supernatant was collected and was centrifuged for 1 hour at 40,000×g. The supernatant was then decanted and the resulting pellet was re-suspended in 20 mM HEPES, pH 7.4, 5 mM MgCl2, 1 mM EDTA, 10% sucrose with complete cocktail protease inhibitors. Protein concentration of membrane suspensions were measured by Bradford Protein Assay using bovine serum albumin as the standard (BioRad catalog #500-0006). Protein concentrations of membrane suspensions were adjusted with the final buffer in the range of 5 to 10 mg/mL and were stored at −80° C. until further use.
# ^35S GTPγS binding assays were performed by incubating recombinant cell membranes prepared above (5 μg) in the presence of scintillation proximity assay beads (SPA beads, Catalog #RPNQ0252 GE Healthcare, Buckinghamshire, England) in GTPγS binding buffer [50 mM HEPES (pH 7.4), 100 mM NaCl, 5 mM MgCl2, 0.001% saponin (Sigma catalog #S4521)] supplemented with 20 uM GDP (Sigma catalog #G7127) in the presence or absence of test compound. The reaction was carried out in 96-well microplates with 0.1 nM [^35S]GTPγS (specific activity=1250 Ci/mmol; Perkin Elmer catalog #NEG030X250UC) in a final volume of 100 μL. After a 90 min room temperature incubation, the reaction was analyzed using a scintillation counter (Perkin Elmer Microbeta instrument). Binding data were analyzed using GraphPad Prism.
# [4] = molecular target: T1, hCB2; assay: hCB2 GTPγS agonist assay (HEK-293 membranes); format: biochemical
# Method in brief: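 Membranes from HEK-293 cells transfected with human CB2 (5 μg) incubated with SPA beads, 0.1 nM [35S]GTPγS and 20 uM GDP in 50 mM HEPES pH 7.4, 100 mM NaCl, 5 mM MgCl2, 0.001% saponin. Incubation 90 min at room temperature. Agonist-stimulated binding read by scintillation counting.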
# [5] = molecular target: T2, hCB1; assay: hCB1 radioligand binding assay ([3H]-CP 55,940 displacement); settings: hCB1 IC50 (CP displ, nM, HEK), HEK membranes
# Method in brief: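 Membranes from stable HEK-293 cells expressing recombinant hCB1 (2-10 μg protein) incubated 90 minutes at room temperature with 0.5 nM [3H]-CP 55,940 in 50 mM Tris-HCl pH 7.5, 5 mM MgCl2, 2.5 mM EDTA, 0.1% fatty acid free BSA. Filtration then scintillation counting; nonspecific binding with 1 μM unlabelled CP 55,940.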
# [6] = molecular target: T2, hCB1; assay: hCB1 cAMP agonist assay (HEK-293 cells); format: cell-based
# [7] = GTPγS agonist, HEK membranes, read-out: hCB1 EC50 (GTPyS ag, nM, HEK)
# [8] = cAMP agonist, HEK, 96-well, read-out: hCB1 EC50 (cAMP ag, nM, HEK (96-well))
# [9] = cAMP agonist, HEK, 96-well, read-out: hCB2 EC50 (cAMP ag, nM, HEK (96-well))
# [10] = GTPγS agonist, HEK membranes, read-out: hCB2 EC50 (GTPyS ag, nM, HEK)
# T2 sequence (P21554 whole entry): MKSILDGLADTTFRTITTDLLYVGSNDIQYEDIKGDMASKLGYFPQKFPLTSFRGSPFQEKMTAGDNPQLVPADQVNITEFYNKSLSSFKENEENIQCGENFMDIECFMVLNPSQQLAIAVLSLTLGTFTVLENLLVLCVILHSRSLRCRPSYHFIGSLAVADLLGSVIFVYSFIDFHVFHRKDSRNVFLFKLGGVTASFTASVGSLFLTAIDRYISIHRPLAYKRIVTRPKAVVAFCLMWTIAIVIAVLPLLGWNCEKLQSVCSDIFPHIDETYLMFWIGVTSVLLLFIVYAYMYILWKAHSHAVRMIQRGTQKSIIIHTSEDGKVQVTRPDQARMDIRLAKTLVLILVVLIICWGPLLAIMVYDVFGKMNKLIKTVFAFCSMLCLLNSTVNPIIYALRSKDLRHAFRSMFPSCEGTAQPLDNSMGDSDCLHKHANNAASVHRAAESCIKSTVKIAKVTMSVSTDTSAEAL
# T1 sequence (P34972 whole entry): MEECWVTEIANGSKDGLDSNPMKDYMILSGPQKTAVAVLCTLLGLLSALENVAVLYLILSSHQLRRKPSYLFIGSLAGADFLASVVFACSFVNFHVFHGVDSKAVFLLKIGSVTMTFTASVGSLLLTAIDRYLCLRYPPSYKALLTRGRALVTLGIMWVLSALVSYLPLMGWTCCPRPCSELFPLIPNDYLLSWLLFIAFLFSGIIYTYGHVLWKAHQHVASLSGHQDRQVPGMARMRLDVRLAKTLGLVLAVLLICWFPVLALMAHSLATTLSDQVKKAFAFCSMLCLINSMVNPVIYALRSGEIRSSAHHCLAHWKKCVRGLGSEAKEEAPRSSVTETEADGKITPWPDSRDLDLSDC
SMILES,EC50 [1] [nM],IC50 [2] [nM],"EC50 [3, 7] [nM]",EC50 [4] [nM],IC50 [5] [nM],EC50 [3] [nM],EC50 [6] [nM],"EC50 [6, 8] [nM]","hCB1 EC50 (cAMP ag, nM, HEK (96-well)) ([6]; cAMP agonist, HEK, 96-well)","EC50 [1, 9] [nM]","EC50 [4, 10] [nM]","hCB1 EC50 (cAMP ag, nM HEK (24-well)) ([6]; cAMP agonist, HEK, 24-well)","EC50 ([6]; cAMP agonist, HEK, 24-well, read-out: hCB1 EC50 (cAMP ag, nM HEK (24-well))) [nM]"
CCCn1c(C(=O)c2c(C)n(CCN3CCOCC3)c3sccc23)cc2ccccc21 [Compound I-11],< 100,< 100,100 to 1000,< 100,< 100,,,,,,,,
CCn1c(C(=O)c2cn(CC3CCOCC3)c3ccccc23)cc2ccsc21 [Compound I-16],< 100,< 100,,< 100,< 100,< 100,< 100,,,,,,
CCn1c(C(=O)c2cn(CCCNS(C)(=O)=O)c3ccccc23)cc2ccsc21 [Compound I-28],< 100,< 100,1000 to 10000,< 100,100 to 1000,,,100 to 1000,,,,,
CCCn1cc(C(=O)c2cc3ccsc3n2CC)c2cccnc21 [Compound I-34],< 100,< 100,,< 100,1000 to 10000,100 to 1000,1000 to 10000,,,,,,
CCCn1c(C(=O)c2cn(C)c3ccccc23)cc2ccsc21 [Compound I-47],< 100,< 100,,100 to 1000,100 to 1000,,,100 to 1000,,,,,
CCCn1c(C)c(C(=O)c2cc3cc(Cl)sc3n2CCC)c2ccccc21 [Compound I-49],< 100,< 100,,< 100,1000 to 10000,,,,"NS (“Not Significant,” which means less than 30% agonist activity when compared to the positive control)",,,,
CCCn1c(C(=O)c2c(C)n(C)c3ccccc23)cc2ccsc21 [Compound I-53],,100 to 1000,,,> 10000,,,,"NS (“Not Significant,” which means less than 30% agonist activity when compared to the positive control)",100 to 1000,100 to 1000,,
CCCCn1c(C)c(C(=O)c2cc3ccsc3n2CCC)c2ccccc21 [Compound I-58],< 100,< 100,,< 100,100 to 1000,,< 100,,,,,,
CCCn1c(C)c(C(=O)c2cc3ccsc3n2CCC)c2cc(C)ccc21 [Compound I-69],< 100,< 100,,< 100,1000 to 10000,,,,"NS (“Not Significant,” which means less than 30% agonist activity when compared to the positive control)",,,,
CCCn1c(C)c(C(=O)c2cc3ccsc3n2CC2CCOCC2)c2ccccc21 [Compound I-72],,100 to 1000,,,100 to 1000,,,,"NS (“Not Significant,” which means less than 30% agonist activity when compared to the positive control)",< 100,100 to 1000,,
CCCn1c(C(=O)c2c(C)n(CCN3CCOCC3)c3ccccc23)cc2ccsc21 [Compound I-73],< 100,< 100,,< 100,100 to 1000,,100 to 1000,,,,,,
CCCn1c(C)c(C(=O)c2cc3ccsc3[nH]2)c2ccccc21 [Compound I-74],100 to 1000,100 to 1000,,100 to 1000,1000 to 10000,,,,"NS (“Not Significant,” which means less than 30% agonist activity when compared to the positive control)",,,,
CCCn1c(C)c(C(=O)c2cc3cc(Cl)sc3[nH]2)c2c1CCCC2 [Compound I-76],,100 to 1000,,,> 10000,,,,"NS (“Not Significant,” which means less than 30% agonist activity when compared to the positive control)",100 to 1000,100 to 1000,,
CCCn1c(C)c(C(=O)c2cc3ccsc3n2CCC)c2c1CCCC2 [Compound I-77],,< 100,,,1000 to 10000,,,,"NS (“Not Significant,” which means less than 30% agonist activity when compared to the positive control)",< 100,< 100,"NS (“Not Significant,” which means less than 30% agonist activity when compared to the positive control)",
CCCn1c(C)c(C(=O)c2cc3ccsc3n2CCC)c2ccccc21 [Compound I-78],< 100,< 100,,< 100,1000 to 10000,,,,"NS (“Not Significant,” which means less than 30% agonist activity when compared to the positive control)",,,"NS (“Not Significant,” which means less than 30% agonist activity when compared to the positive control)",
CCCn1c(C)c(C(=O)c2cc3ccsc3n2CCC)c2c1CCCCC2 [Compound I-80],,< 100,,,100 to 1000,,,1000 to 10000,,< 100,< 100,,
CCCn1c(C)c(C(=O)c2cc3sccc3[nH]2)c2ccccc21 [Compound I-81],100 to 1000,100 to 1000,,100 to 1000,1000 to 10000,,,,"NS (“Not Significant,” which means less than 30% agonist activity when compared to the positive control)",,,,
CCCn1c(C(=O)c2c(C)n(CCC)c3sccc23)cc2ccsc21 [Compound I-83],< 100,,100 to 1000,,,,,< 100,,,,,< 100
CCCn1c(C(=O)c2c(C)[nH]c3sccc23)cc2ccsc21 [Compound I-84],,,> 10000,,,,,< 100,,,,,
